Source: patent US7863350B2, “Food preservation compositions and methods of use thereof” (priority 2007, dated 2011)
Values joined by “and” are separate entries in the source; they are usually repeats but may differ in a detail not shown here. Equal entries are not always repeated.

Experiments:
Salmonella sp. [1] = assay: Survival of Salmonella on sliced tomatoes with low levels of antimicrobials at 4° C. (Example 3); assay type: cell-based; details: for Survival of Salmonella on sliced tomatoes, 5 days: about 4° C.
Description: The effect of low levels of specified antimicrobials on survival of Salmonella sp. in packaged sliced tomato under refrigeration (4±1° C.) was determined. The volatile antimicrobials tested were chlorine dioxide, allyl isothiocyanate cyclodextrine, origanum cyclodextrine, cinnamaldehyde cyclodextrine and basil cyclodextrine.
Slices were inoculated with 5 Salmonella strains that included S. poona (cantaloupe associated outbreak), S. stanley H 1256 (Alfafa sprout associated outbreak), S. baildon (tomato associated outbreak), S. typhimurium DT 104 (multiple antibiotic resistant) and S. montevideo (tomato associated outbreak). […] The inoculated packages were stored at 4±1° C. for 10 days.
(§1) Inoculated and uninoculated tomato slices were analyzed at 0, 5 and 10 days. […] The plates were incubated at 37° C. for 18 hr and typical Salmonella colonies counted. The absorbent (fluid in case of Control 1 trays) was analyzed for Salmonella and Aerobic Plate Count by plating appropriate dilution of the gel/fluid on MacConkey agar plates and Plate Count Agar.

Salmonella [2] = assay: Location of viable Salmonella on tomato slices after storage with antimicrobials; assay type: cell-based; details: about 4° C.; for viable Salmonella in Portion 1: Table 5
Description: (§2) Slices were inoculated with 5 Salmonella strains that included S. poona (cantaloupe associated outbreak), S. stanley H 1256 (Alfafa sprout associated outbreak), S. baildon (tomato associated outbreak), S. typhimurium DT 104 (multiple antibiotic resistant) and S. montevideo (tomato associated outbreak). […] Then, the specified volatile antimicrobials were pipetted into the wells of each package. The inoculated packages were stored at 4±1° C. for 10 days.
(§3) Inoculated and uninoculated tomato slices were analyzed at days 0 and 10. […] The diluted samples were plated on MacCkonkey agar plates. The plates were incubated at 37° C. for 18 hr and typical Salmonella colonies counted.
Tomato slices were inoculated with Salmonella between slices and placed in trays. […] The day 0 data (data is taken the day after inoculation) presented in Table 4 indicates no difference in the location of the inoculum between the Control 1 trays and the Control 2 tray at “0” time. After 10 days of storage, slices still had Salmonella distributed throughout; however, the distribution differed between Control 1 trays and Control 2 trays. The Salmonella in the Control 2 trays were located primarily at the top most portion of the slice (average of 72% of Salmonella on the top skin), whereas the Control 1 trays had high numbers at the bottom of the slice (average of 41% in bottom two portions). The total number of Salmonella increased on the slices to a similar extent for both tray types (Table 1).

Salmonella [3] = assay: Salmonella in the absorbent in trays after 11 days (Example 2); assay type: cell-based; details: about 4° C.
Description: (§4) The absorbent in the trays was analyzed for aerobic plate count and salmonella levels at the conclusion of the study. The data was obtained on day 11.

aerobic microflora [4] = assay: Aerobic plate count in the absorbent/juice from trays after 10 days (Example 3); assay type: cell-based; details: about 4° C.
Description: as §1

Salmonella sp. [5] = assay: Survival of Salmonella on sliced tomato packaged with volatile antimicrobials at about 4° C. (Example 2); assay type: cell-based; details: for effectiveness against Salmonella on slices: 10 days, origanum 150 μl, basil 75 μl, chlorine dioxide in absorbent or as spray, cyclodextrine forms high level, cinnamaldehyde 35 μl with spray
Description: The effect of volatile antimicrobials on the survival of Salmonella sp. in packaged sliced tomato was determined. The antimicrobials tested were origanum oil, basil oil, cyclodextrine cinnamaldehyde, chlorine dioxide as spray and in absorbent, and allyl isothiocyanate in cyclodextrine. The combinations of cinnamaldehyde with chlorine dioxide and allyl isothiocyanate in cyclodextrine with cinnamaldehyde were also tested.
as §2, §3

Salmonella [6] = assay: Salmonella counts in the absorbent/juice from trays after 10 days (Example 3); assay type: cell-based; details: about 4° C.
Description: as §1

aerobic microflora [7] = assay: Aerobic Plate Count of the absorbent in trays after 11 days (Example 2); assay type: cell-based; details: for growth inhibition (APC) in the absorbent over the control absorbent: about 4° C.
Description: as §4

Salmonella spp. = assay: Survival of Salmonella spp. in packaged sliced tomato with volatile oils at about 11° C.; assay type: cell-based; details: for Salmonella on sliced tomatoes, Day 9: 9 days at about 11° C.
Excerpt: The effect of origanum, basil, and cinnamaldehyde oils on the survival of Salmonella sp. in packaged sliced tomato was studied. Five Salmonella serotypes were used namely, S. poona (cantaloupe associated outbreak), S. stanley H 1256 (Alfa Alfa sprout associated outbreak), S. baildon (tomato associated outbreak), S. typhimurium DT 104 and S. montevideo (tomato associated outbreak). Five μl of the cocktail was inoculated on top of three tomato slices in package to have a target inoculum of 5×10^6 CFU/slice. Then, 12, 35, and 75 μl of each volatile antimicrobial agent were pipetted into the wells of the separate packages. The packages were stored at 11° C. for 9 days. After 8 days of incubation mold was observed on some slices in some packages.
The inoculated tomato slices were analyzed at day 0 and 9. Each slice was mixed with 90 ml 0.1% peptone water and stomached for 1 min. Next, 1 ml of the stomached material was diluted in 9 ml 0.1% peptone and spiral plated on MacCkonkey agar plates. The plates were incubated at 37° C. for 18 hr.
The data was analyzed by the General Linear Method using SAS 9.1. […] All results are for Day 9 except for the control. All day 0 counts were the same as the control. […] The other results include both the volatile antimicrobial agent and absorbent materials.

yeast and mold = details: 4° C., up to 10 days
[8] = test system: pathogenic and aerobic microorganisms

`[O][Cl+][O-]` [Chlorine Dioxide, chlorine dioxide] was tested, and the “Survival of Salmonella on sliced tomatoes, 5 days” value (from here on “Survival of Salmonella … 5 days”) (Salmonella sp. [1]; 0.024 g per tray) was 6.32 Log CFU/g, the “Survival of Salmonella … 5 days” value (Salmonella sp. [1]; 0.052 g per tray) was 5.61 Log CFU/g and the “Survival of Salmonella … 5 days” value (Salmonella sp. [1]; 0.112 g per tray) was 5.90 Log CFU/g. The “Survival of Salmonella … 5 days” value (Salmonella sp. [1]; 0.25 g per tray) was 5.65 Log CFU/g, the “Survival of Salmonella … 5 days” value (Salmonella sp. [1]; 0.4 g per tray) was 5.96 Log CFU/g and the “Survival of Salmonella on sliced tomatoes, 10 days” value (from here on “Survival of Salmonella … 10 days”) (Salmonella sp. [1]; 10 days, 4° C., 0.024 g per tray) was 5.89 Log CFU/g. For the same compound, the “Survival of Salmonella … 10 days” value (Salmonella sp. [1]; 10 days, 4° C., 0.052 g per tray) was 5.65 Log CFU/g, the “Survival of Salmonella … 10 days” value (Salmonella sp. [1]; 10 days, 4° C., 0.112 g per tray) was 5.42 Log CFU/g and the “Survival of Salmonella … 10 days” value (Salmonella sp. [1]; 10 days, 4° C., 0.25 g per tray) was 5.32 Log CFU/g. The “Survival of Salmonella … 10 days” value (Salmonella sp. [1]; 10 days, 4° C., 0.4 g per tray) was 5.15 Log CFU/g, the “effect on Salmonella on tomato slices” value (Salmonella sp. [1]; 10 days, 4° C., added to absorbent) was “significantly reduced levels” and the “viable Salmonella in Portion 1 (top portion of skin)” value (Salmonella [2]; Table 4, Day 10, chlorine dioxide, amount not given) was 70 % of total survivors and 69 % of total survivors and 81 % of total survivors. For the same compound, the “viable Salmonella in Portion 1” value (Salmonella [2]; Day 0, spray, listed as Chlorine Dioxide Spray) was 56 % of total survivors and 55 % of total survivors and 79 % of total survivors, the “Salmonella in the absorbent in trays (Table 8)” value (Salmonella [3]; chlorine dioxide, amount not given) was 1.40 Log CFU/ml and the “Salmonella in the absorbent in trays (Table 9)” value (shortened to “Salmonella … (Table 9)”) (Salmonella [3]; spray) was 2.21 Log CFU/ml. The “Aerobic Plate Count in the absorbent/juice” value (aerobic microflora [4]; 0.024 g per tray) was less than 2.3 Log CFU/g, the “Aerobic Plate Count in the absorbent/juice” value (aerobic microflora [4]; 0.052 g per tray) was 4.62 Log CFU/g and the “Aerobic Plate Count in the absorbent/juice” value (aerobic microflora [4]; 0.112 g per tray) was 5.1 Log CFU/g. For the same compound, the “Aerobic Plate Count in the absorbent/juice” value (aerobic microflora [4]; 0.25 g per tray) was less than 2.3 Log CFU/g, the “Aerobic Plate Count in the absorbent/juice” value (aerobic microflora [4]; 0.4 g per tray) was less than 2.3 Log CFU/g and the “effectiveness against Salmonella on slices” value (Salmonella sp. [5]) was “most effective”. For the same compound, the “effectiveness against Salmonella on slices” value (Salmonella sp. [5]; listed as Chlorine dioxide spray) was “little effect”, the “Survival of Salmonella on sliced tomatoes (Table 2)” value (Salmonella sp. [5]; Day 0) was 4.88 Log CFU/Slice and the “Survival of Salmonella on sliced tomatoes (Table 3)” value (“Survival of Salmonella … (Table 3)” below) (Salmonella sp. [5]; Day 0, spray 2.54 ml/tray) was 5.27^bcd Log CFU/Slice. The “Survival of Salmonella on sliced tomatoes (Table 2)” value (Salmonella sp. [5]; Day 10, chlorine dioxide in absorbent, amount not given) was 4.32 Log CFU/Slice, the “Survival of Salmonella … (Table 3)” value (Salmonella sp. [5]; Day 10, spray 2.54 ml/tray) was 5.17^cde Log CFU/Slice and the “Salmonella in the absorbent/juice” value (Salmonella [6]; 0.024 g per tray) was 3.26 Log CFU/g. The “Salmonella in the absorbent/juice” value (Salmonella [6]; 0.052 g per tray) was 4.39 Log CFU/g, the “Salmonella in the absorbent/juice” value (Salmonella [6]; 0.112 g per tray) was 4.43 Log CFU/g and the “Salmonella in the absorbent/juice” value (Salmonella [6]; 0.4 g per tray) was 3.77 Log CFU/g. For the same compound, the “killing of Salmonella that dripped into the absorbent” value (Salmonella [6]; AITC at 36) was “reduced the pathogen numbers”, the “Aerobic Plate Count of the absorbent in trays (Table 6)” value (aerobic microflora [7]; 4° C., chlorine dioxide, amount not given) was 4.63 Log CFU/ml and the “growth inhibition (APC) in the absorbent over the control absorbent” value (from here on “growth inhibition … over the control absorbent”) (aerobic microflora [7]) was “did not produce much additional growth inhibition”. The “growth inhibition … over the control absorbent” value (aerobic microflora [7]; listed as chlorine dioxide spray) was “increased growth inhibition”.

For `O=CC=Cc1ccccc1` [Cinnamaldehyde, cinnamaldehyde], the “viable Salmonella in Portion 1” value (Salmonella [2]; Day 10, 75 μl) was 75 % of total survivors and 73 % of total survivors and 87 % of total survivors and 91 % of total survivors, the “Salmonella … (Table 9)” value (Salmonella [3]; 35 μl) was 2.83 Log CFU/ml and the “Salmonella … (Table 9)” value (Salmonella [3]; 75 μl) was 2.04 Log CFU/ml. For the same compound, the “Survival of Salmonella … (Table 3)” value (Salmonella sp. [5]; Day 10, 35 μl) was 4.78^fg Log CFU/Slice, the “Survival of Salmonella … (Table 3)” value (Salmonella sp. [5]; Day 10, 75 μl) was 4.67^fg Log CFU/Slice and the “growth inhibition … over the control absorbent” value (aerobic microflora [7]) was “little growth inhibition”. The “Salmonella on sliced tomatoes, Day 9” value (Salmonella spp.; 12 μl per package) was 5.76 ± 0.34 Log CFU/Slice, the “Salmonella on sliced tomatoes, Day 9” value (Salmonella spp.; 35 μl per package) was 5.34 ± 0.02 Log CFU/Slice and the “Salmonella population” value (Salmonella spp.; 9 days, 11° C., origanum 35 or 75, basil 12, cinnamaldehyde 12 and 35 μl) was “declined significantly”. The “relative antimicrobial potency” value (Salmonella spp.; among origanum, basil and cinnamaldehyde oils) was “most potent antimicrobial”.

For `C/C=C/C=C/C(=O)[O-].[K+]` [Potassium sorbate, potassium sorbate], the “yeast and mold growth in tomato juice in gel” value (yeast and mold) was “allows little growth”, the “bacteria in tomato juice in gel” value (total bacterial count; 4° C., up to 10 days) was “kills bacteria” and the “preservation of the gel / growth of yeast, mold and bacteria compared to the control” value (total bacterial count; 10 day period, 4° C. storage temperature) was “adequate to preserve the gel”. The “effectiveness of higher vs lower levels” value [8] was “marginally more effective” and the “inhibition of growth of pathogenic and aerobic microorganisms in the gel/tomato juice mixture” value [8] was “effective at inhibiting growth”.

With `O=C(O)CC(O)(CC(=O)O)C(=O)O` [Citric acid, citric acid] the “yeast and mold growth in tomato juice in gel” value (yeast and mold) was “little effect”.
